Test results from ChEMBL document CHEMBL1201862, “PubChem BioAssay data set” (2004).
Calls of active or inactive are those of the source. Square brackets hold non-standard residues; d marks the D form. Peptide text beside a SMILES is read from it. * marks the point of attachment. ξ: configuration not given here. Cbz = O=C(OCc1ccccc1)*; OBn = c1ccc(CO*)cc1; ξP = O=C(O)C1CCCN1

Legend:
[1] = tested on: Streptococcus sp. 'group A'; assay: Streptococcus pyogenes SK(-)GAS viability under kanamycin – luminescence, BacTiterGlo, confirmation, counter-screen for streptokinase expression inhibitor project, dose response (AID 1900); format: functional, organism-based
[2] = tested on: Streptococcus; assay: GAS UMAA2166 growth inhibition – luminescence, BacTiterGlo, counter-screen for streptokinase expression inhibitor project, dose response (AID 1915); format: functional, organism-based;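 also: potency for reduction of bacterial viability or growth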
[3] = NIH-3T3 fibroblast cytotoxicity, dose response, cytotoxicity control, cell-based, fluorescence, Alamar Blue, secondary assay (AID 2327); format: functional;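 also: NIH-3T3 mouse fibroblasts cultured with fluconazole at 8 µg/mL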
[4] = fluconazole-exposed Candida albicans growth modulators – fluorescence, retest, confirmation (AID 2467); format: functional, cell-based
[5] = Luminescence Cell-Based Dose Confirmation HTS to Identify Activators of 5'UTR Stem-Loop Driven Alpha-Synuclein mRNA Translation in H4 Neuroglioblastoma Cells. [Related pubchem assays: 1829 (Project Summary), 1814 (Primary HTS)]; format: functional
[6] = tested on: H4; assay: Luminescence Cell-Based Dose Response HTS to Identify Activators of 5'UTR Stem-Loop Driven Prion Protein mRNA Translation in H4 Neuroglioblastoma Cells. [Related pubchem assays: 1829 (Project Summary), 1814 (Primary HTS)]; format: functional; settings: Homo sapiens
[7] = Luminescence Cell-Based Dose Response HTS to Identify Activators of Luciferase Translation or Activity in H4 […] Cells. [Related pubchem assays: 1829 (Project Summary), 1814 (Primary HTS)]; format: functional
[8] = target: Cytochrome P450 2C19 (Homo sapiens, UniProt P33261); assay: Cytochrome panel assay with activity outcomes. Panel member name: p450-cyp2c19 Compounds with AC50 equal or less than 10 uM are considered active; format: functional
[9] = target: Cytochrome P450 2C9 (Homo sapiens, UniProt P11712)
[10] = target: T1, Cytochrome P450 1A2 (Homo sapiens, UniProt P05177);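 also: PubChem cytochrome P450 panel assay, CYP1A2 panel member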
T1 sequence (P05177 whole entry): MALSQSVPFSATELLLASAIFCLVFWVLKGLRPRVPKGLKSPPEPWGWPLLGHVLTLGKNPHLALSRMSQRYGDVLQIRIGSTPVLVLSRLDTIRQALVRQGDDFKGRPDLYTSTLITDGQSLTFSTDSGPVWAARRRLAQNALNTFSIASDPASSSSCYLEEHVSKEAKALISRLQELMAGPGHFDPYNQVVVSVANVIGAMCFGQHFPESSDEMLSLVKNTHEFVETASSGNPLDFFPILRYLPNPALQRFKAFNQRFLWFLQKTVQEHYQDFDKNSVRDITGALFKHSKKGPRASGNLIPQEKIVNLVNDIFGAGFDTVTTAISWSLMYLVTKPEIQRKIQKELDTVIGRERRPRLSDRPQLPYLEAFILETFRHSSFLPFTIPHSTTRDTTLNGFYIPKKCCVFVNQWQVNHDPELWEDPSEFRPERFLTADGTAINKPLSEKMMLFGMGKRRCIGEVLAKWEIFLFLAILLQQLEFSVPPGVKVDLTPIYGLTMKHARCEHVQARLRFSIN

[11] = target: T2, Corticotropin-releasing factor receptor 2/Corticotropin-releasing factor-binding protein (Homo sapiens, UniProt P24387+Q13324); assay: activators of CRF receptor 2 with binding protein – uHTS hits, confirmation (AID 602473); format: functional; settings: read-out: EC50_Mean
T2 sequence (Q13324 whole entry): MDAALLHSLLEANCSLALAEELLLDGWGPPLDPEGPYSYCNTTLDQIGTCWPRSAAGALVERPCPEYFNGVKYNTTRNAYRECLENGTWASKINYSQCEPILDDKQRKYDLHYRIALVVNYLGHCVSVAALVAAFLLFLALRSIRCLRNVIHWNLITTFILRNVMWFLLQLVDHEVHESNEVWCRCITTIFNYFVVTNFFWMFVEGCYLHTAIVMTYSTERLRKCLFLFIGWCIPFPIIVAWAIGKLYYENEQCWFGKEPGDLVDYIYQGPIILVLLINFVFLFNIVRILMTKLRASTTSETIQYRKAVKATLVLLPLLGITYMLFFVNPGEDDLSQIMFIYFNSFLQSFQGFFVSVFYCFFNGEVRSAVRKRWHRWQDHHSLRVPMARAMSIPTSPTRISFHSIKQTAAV
T2 sequence (P24387 whole entry): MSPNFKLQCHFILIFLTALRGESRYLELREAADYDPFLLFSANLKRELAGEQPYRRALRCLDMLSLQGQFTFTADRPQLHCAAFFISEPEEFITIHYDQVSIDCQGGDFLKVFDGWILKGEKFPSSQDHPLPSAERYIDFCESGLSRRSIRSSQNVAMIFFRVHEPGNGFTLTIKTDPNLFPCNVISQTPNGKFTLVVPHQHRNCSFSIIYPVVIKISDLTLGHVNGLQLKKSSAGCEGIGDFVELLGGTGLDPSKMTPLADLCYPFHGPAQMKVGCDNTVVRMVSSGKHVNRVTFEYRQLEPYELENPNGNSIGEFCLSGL

[12] = target: T2, Corticotropin-releasing factor receptor 2/Corticotropin-releasing factor-binding protein; assay: Dose Response confirmation of uHTS hits for small molecule antagonists of the CRF-binding protein and CRF-R2 receptor complex.; format: functional; settings: read-out: IC50_Mean
[13] = target: Cytochrome P450 2D6 (Homo sapiens, UniProt P10635);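 also: CYP2D6 member of a cytochrome P450 panel assay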
[14] = target: Cytochrome P450 3A4 (Homo sapiens, UniProt P08684);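 also: CYP3A4 tested as one member of a cytochrome P450 panel screen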
Sequence of Cytochrome P450 3A4 (P08684 whole entry): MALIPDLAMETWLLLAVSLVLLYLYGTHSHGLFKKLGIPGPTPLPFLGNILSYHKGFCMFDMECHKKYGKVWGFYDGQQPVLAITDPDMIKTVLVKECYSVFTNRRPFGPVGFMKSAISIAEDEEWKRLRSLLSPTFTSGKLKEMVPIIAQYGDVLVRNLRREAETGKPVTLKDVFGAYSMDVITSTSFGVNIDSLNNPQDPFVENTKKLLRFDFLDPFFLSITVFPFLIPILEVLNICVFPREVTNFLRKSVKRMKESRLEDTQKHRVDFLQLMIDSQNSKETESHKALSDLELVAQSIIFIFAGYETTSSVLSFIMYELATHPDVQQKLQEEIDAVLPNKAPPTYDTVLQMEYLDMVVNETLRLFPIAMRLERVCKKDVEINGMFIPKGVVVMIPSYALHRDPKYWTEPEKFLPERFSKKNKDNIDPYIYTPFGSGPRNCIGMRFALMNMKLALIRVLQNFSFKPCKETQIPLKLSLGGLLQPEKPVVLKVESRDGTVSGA

Sequence of Cytochrome P450 2C19 (P33261 whole entry): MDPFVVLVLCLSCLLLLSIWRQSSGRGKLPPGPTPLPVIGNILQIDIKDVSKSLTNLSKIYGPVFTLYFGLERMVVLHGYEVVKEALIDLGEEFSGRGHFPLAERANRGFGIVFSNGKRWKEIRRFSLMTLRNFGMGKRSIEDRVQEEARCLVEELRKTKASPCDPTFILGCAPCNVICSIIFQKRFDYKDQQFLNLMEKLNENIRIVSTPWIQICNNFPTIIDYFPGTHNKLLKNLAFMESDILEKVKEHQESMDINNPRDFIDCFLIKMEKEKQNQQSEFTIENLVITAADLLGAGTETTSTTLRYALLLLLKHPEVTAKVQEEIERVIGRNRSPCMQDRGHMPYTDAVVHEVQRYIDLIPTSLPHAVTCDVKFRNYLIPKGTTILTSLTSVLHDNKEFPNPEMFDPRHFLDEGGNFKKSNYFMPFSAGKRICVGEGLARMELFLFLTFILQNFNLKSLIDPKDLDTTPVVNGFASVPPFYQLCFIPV
Sequence of Cytochrome P450 2D6 (P10635 whole entry): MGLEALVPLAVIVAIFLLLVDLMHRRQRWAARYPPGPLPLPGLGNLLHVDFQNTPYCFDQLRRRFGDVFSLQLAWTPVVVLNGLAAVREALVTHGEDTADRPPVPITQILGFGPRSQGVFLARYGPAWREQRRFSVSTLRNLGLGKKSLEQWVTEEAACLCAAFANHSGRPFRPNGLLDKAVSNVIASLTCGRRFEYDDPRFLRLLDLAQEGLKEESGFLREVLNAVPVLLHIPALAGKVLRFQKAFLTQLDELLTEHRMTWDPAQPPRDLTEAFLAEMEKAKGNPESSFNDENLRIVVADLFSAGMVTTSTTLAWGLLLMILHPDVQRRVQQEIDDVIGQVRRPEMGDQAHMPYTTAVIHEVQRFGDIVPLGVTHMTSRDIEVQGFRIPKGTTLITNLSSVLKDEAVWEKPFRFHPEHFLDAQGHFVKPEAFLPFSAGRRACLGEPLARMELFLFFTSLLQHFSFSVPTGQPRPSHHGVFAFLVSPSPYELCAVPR
Sequence of Cytochrome P450 2C9 (P11712 whole entry): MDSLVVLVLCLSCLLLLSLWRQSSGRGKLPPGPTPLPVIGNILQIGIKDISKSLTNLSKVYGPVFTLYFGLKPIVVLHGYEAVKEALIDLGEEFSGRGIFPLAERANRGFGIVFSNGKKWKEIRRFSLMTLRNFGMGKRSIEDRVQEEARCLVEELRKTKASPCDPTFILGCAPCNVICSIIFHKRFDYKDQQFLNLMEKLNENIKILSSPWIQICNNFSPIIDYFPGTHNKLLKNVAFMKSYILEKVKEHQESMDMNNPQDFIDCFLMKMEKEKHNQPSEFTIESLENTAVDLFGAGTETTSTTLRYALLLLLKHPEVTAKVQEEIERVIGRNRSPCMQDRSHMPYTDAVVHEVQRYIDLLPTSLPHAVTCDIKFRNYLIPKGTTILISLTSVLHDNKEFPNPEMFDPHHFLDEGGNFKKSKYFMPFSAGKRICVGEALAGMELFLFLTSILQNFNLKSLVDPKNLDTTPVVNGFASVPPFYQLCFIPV

CC(C)(C)c1ccc(OCC(=O)NNC(=S)NC(=O)c2ccco2)c(Br)c1
EC50 [1]: < 0.06 µM (active)
EC50 [2]: 0.1 µM (active)

Nc1ccc2nc(SCc3ccc([N+](=O)[O-])cc3)sc2c1
EC50 [3]: > 150 µM (inactive)
EC50 [4]: > 38 µM (not active)

O=C(Nc1ccc2c(c1)OCCO2)c1cc2sccc2n1Cc1ccc(F)cc1
EC50 [5]: 0.94 µM (active)
EC50 [6]: > 120 µM (not active)
EC50 [7]: 3.85 µM (active)

O=C(OCn1nnc2ccccc2c1=O)c1cccnc1
AC50 ([8]; read-out: AC50): 25.1 µM (inconclusive)
AC50 [9]: 25.1 µM (inconclusive)
AC50 [10]: 17.8 µM (inconclusive)

CC1(O)c2ccccc2C(=O)N1CCc1ccccc1F (stereo unspecified)
EC50 [11]: > 53 µM (inactive)
IC50 [12]: > 47.1 µM (inactive)
AC50 [10]: 20 µM (inconclusive)
AC50 [13]: 28.2 µM (inconclusive)

Cc1cc(S(=O)(=O)NC2CCCCC2)ccc1OCC(=O)NCC1CCCO1 (stereo unspecified)
EC50 [11]: > 53 µM (inactive)
IC50 [12]: > 47.1 µM (inactive)

Cc1nc2nc(NC(=O)c3ccco3)nn2c(C)c1Cl
EC50 [5]: 0.817 µM (active)
EC50 [6]: 15.5 µM (active)
EC50 [7]: 14.3 µM (active)

CCOC(=O)c1ccccc1OCc1cc(/C=N/n2cnnc2)ccc1OC
AC50 [10]: 1.26 µM (inconclusive)
EC50 [3]: > 150 µM (inactive)
EC50 [4]: > 38 µM (not active)

CC(C)(CNC(=O)c1ccc(Br)o1)CNC(=O)c1ccc(Br)o1
EC50 [11]: > 53 µM (inactive)
IC50 [12]: > 47.1 µM (inactive)

CCOc1ccccc1NC(=O)CNC(=O)Cc1ccccc1
EC50 [11]: > 53 µM (inactive)
IC50 [12]: > 47.1 µM (inactive)

COc1ccccc1CNc1ncnc2ccc(-c3cccc(NS(C)(=O)=O)c3)cc12
AC50 [9]: 0.794 µM (inconclusive)
AC50 [13]: 20 µM (inconclusive)

O=C(O)CS(=O)(=O)C(c1ccccc1)c1ccccc1
AC50 [8]: inconclusive

CCOC(=O)N1CCN(S(=O)(=O)c2ccc(C)c(C)c2C)CC1
EC50 [11]: > 53 µM (inactive)
IC50 [12]: > 47.1 µM (inactive)

Cc1ccc(NC(=O)NNC(=O)c2cc3ccccc3cc2O)c(C)c1
EC50 [3]: > 150 µM (inconclusive)

O=C(CSCc1cccc(CSCC(=O)Nc2ccccc2)n1)Nc1ccccc1
EC50 [3]: > 150 µM (inactive)
EC50 [4]: > 38 µM (not active)

CCOc1nc(NCc2ccco2)nc(Nc2ccccc2F)n1
EC50 [5]: 6.54 µM (active)
EC50 [6]: 69.9 µM (active)
EC50 [7]: 12.9 µM (active)

O=C1[C@H]2[C@H]3[C@H](O)[C@H](O)C/C(=N/OCc4ccccc4)[C@@H]3CC[C@@H]2C(=O)N1Cc1ccc2c(c1)OCO2
AC50 ([8]; read-out: AC50): 3.98 µM (inconclusive)

Cc1cc(O)c(C(C)C)cc1CN1CCCCC1
AC50 [10]: 1 µM (inconclusive)
AC50 [13]: 3.98 µM (inconclusive)

FC(F)(F)c1nc2ccccc2nc1N/N=C\c1ccccc1
AC50 ([8]; read-out: AC50): 39.8 µM (inconclusive)
AC50 [9]: 20 µM (inconclusive)
AC50 [13]: 14.1 µM (inconclusive)

CCN1CCN(c2nc3c(c(=O)[nH]c(=O)n3C)n2CCCSc2ncccn2)CC1
AC50 [8]: inconclusive

O=C(NNS(=O)(=O)c1ccc(Cl)cc1)NC1CCCCC1
AC50 ([8]; read-out: AC50): 10 µM (inconclusive)
AC50 [9]: 17.8 µM (inconclusive)

O=C(Nc1nnc(S(=O)(=O)N2CCOCC2)s1)c1cccc(F)c1
EC50 [5]: 17.8 µM (active)
EC50 [6]: 14.6 µM (active)
EC50 [7]: 9.48 µM (active)

O=C(CNC(=O)OCc1ccccc1)NCC(=O)N1CCCC1C(=O)OCc1ccccc1 (stereo not drawn) (Cbz-Gly-Gly-[ξP]-OBn)
AC50 ([8]; read-out: AC50): 0.0355 µM (inconclusive)
AC50 [14]: 17.8 µM (inconclusive)
